Entries after “also recorded” stand apart in the source; their conditions may differ.
Tested on: human reference serum 007sp
Test: Glycan array, antibody binding from human reference serum 007sp with CPS/CWPS competition
Settings: glycan array competition experiment, serum 007sp (FIG. 5, FIG. 6), 24* compared with 16*
Method: Pyruvated SP4 tetrasaccharide 24* was dissolved at 10 mM in water and diluted to 100 μM and 50 μM in coupling buffer (50 mM sodium phosphate, pH 8.5). Each concentration was spotted in duplicates to CodeLink activated glass slides (Surmodics) alongside a number of related structures and native polysaccharides (see FIG. 4 for printing pattern) using a Scienion S3 microarray printer at 65% relative humidity. The slides were incubated in a humidity saturated chamber overnight. They were washed twice with water and quenched by incubation with 100 mM ethanolamine, 50 mM sodium phosphate pH 9 for one hour at room temperature. They were washed again twice, dried by centrifugation and stored at 4° C. until use.
Slides were blocked by incubation with 1% BSA-PBS at room temperature, washed twice with PBS and dried by centrifugation. A 64 well incubation gasket was attached to the glass slides.
Sera (rabbit SP4 typing serum (SSI Diagnostica, Denmark) or human reference serum 007sp (Clin. Vaccine Immunol. 2011 18 (10), 1728)) were diluted in 1% BSA-PBS containing no competitors or native SP4 CPS (capsular polysaccharide) or CWPS (S. pneumoniae cell wall polysaccharide) as competitors. […] It was dried by centrifugation and the fluorescence was read out using s GenePix 4300a fluorescence reader.

With `CC(=O)N[C@@H]1[C@H](O[C@@H]2[C@H](O)[C@H](C)O[C@@H](O[C@H]3[C@@H](O)[C@@H](CO)O[C@H](O[C@@H]4[C@H](O)[C@@H](O)[C@@H](OCCCCCN)O[C@@H]4CO)[C@@H]3NC(C)=O)[C@H]2NC(C)=O)O[C@H](CO)[C@@H](O)[C@@H]1O` [compound 16*, N-((2R,3S,4R,5S,6R)-2-(((2S,3S,4S,5R,6S)-3-acetamido-2-(((2R,3R,4R,5R,6R)-3-acetamido-2-(((2R,3R,4R,5R,6S)-6-((5-aminopentyl)oxy)-4,5-dihydroxy-2-(hydroxymethyl)tetrahydro-2H-pyran-3-yl)oxy)-5-hydroxy-6-(hydroxymethyl)tetrahydro-2H-pyran-4-yl)oxy)-5-hydroxy-6-methyltetrahydro-2H-pyran-4-yl)oxy)-4,5-dihydroxy-6-(hydroxymethyl)tetrahydro-2H-pyran-3-yl)acetamide] the “inhibition (decline) of signal by native S. pneumoniae serotype 4 CPS” value was “Compared to unpyruvated tetrasaccharide 16*, the signal for the pyruvated saccharide 24* can be inhibited far more efficiently; also recorded: much stronger for pyruvated tetrasaccharide 24* (spot B) compared with unpyruvated tetrasaccharide 16*”.
